Values of other authors in patent US20110020252A1, “METHOD OF LONG LASTING HUMAN SKIN TANNING” (priority 2010, published 2011).

Tested on: gram-positive cocci (including methicillin-resistant Staphylococcus aureus-MSRA), some gram-negative organisms, Legionella, many mycobacterium and some fungi
Details: cited from earlier work

Compound: CO[C@H]1/C=C/O[C@@]2(C)Oc3c(C)c(O)c4c(O)c(c(/C=N/N5CCN(C)CC5)c(O)c4c3C2=O)NC(=O)/C(C)=C\C=C\[C@H](C)[C@H](O)[C@@H](C)[C@@H](O)[C@@H](C)[C@H](OC(C)=O)[C@@H]1C [Rifampin]
- antimicrobial activity: good activity
